# Patent US6080735A, “Estra-1,3,5(10)-trien derivatives, processes for their preparation and pharmaceutical compositions containing these compounds” (priority 1994, dated 2000)
# Like-named read-outs stand apart in the source and are kept apart here.
# Columns and labels:
# [1] = system: uterus (ovariectomised rats); assay: Uterus weight after oral treatment of ovariectomised rats (oral estrogen effects, sexual function); format: in vivo; settings: ovariectomised rat, 10 μg/animal/d p.o., d1 to d7
# Source text: The adult female experimental animals (breeder: HSD/WIN:WU) were ovariectomised (Day […]). Treatment with one daily oral application of test substances was started two weeks after ovariectomy. All animals were assigned to groups by randomised approach. The experiment was a block design. All animals were weighed twice, prior to and at the end of the experiment. Start and end of treatment were defined as Day 1 (=d1) or Day 7 (=d7). The animals were sacrificed on Day 8. Several organs (uterus, adrenal glands, liver) were removed and weighed and were passed on in deep-frozen condition (-196° C.) for further investigation.
# [2] = cited from earlier work
# liver = settings: cited from earlier work
# angiotensin = settings: EE 30 μg to 20 μg with 150 μg gestagen (desogestrel), cited from earlier work
# [3] = cited from earlier work; remark: listed apart in the source
# [4] = Blood level after oral application to ovariectomised rats; format: in vivo; settings: ovariectomised rat, 10 μg/animal/d p.o., d1 to d7
# Experimental: Evidence was provided to hepatic estrogenicity in ovariectomised rats: The adult female experimental animals (breeder: HSD/WIN:WU) were ovariectomised (Day […]). Treatment with one daily oral application of test substances was started two weeks after ovariectomy.
# Start and end of treatment were defined as Day 1 (=d1) or Day 7 (=d7). The animals were sacrificed on Day 8. Several organs (uterus, adrenal glands, liver) were removed and weighed and were passed on in deep-frozen condition (-196° C.) for further investigation.
# Blood was taken from the retrobulbar plexus prior to treatment (d0) as well as on (d4) and (d8), with the animals etherized. The serum thus obtained was used to determine IGF1, angiotensin I, cholesterol and HDL cholesterol.
# [5] = 0-24 hours from application, Goldzieher
structure (smiles),measurement,setting,value
"CN(C)S(=O)(=O)Oc1ccc2c(c1)CC[C@@H]1[C@@H]2CC[C@]2(C)[C@@H](O)[C@H](O)C[C@@H]12 [J 989, 16α,17β-dihydroxy-estra-1,3,5(10)-trien-3-yl N,N-dimethylsulfamate]",Uterus weight,[1],183 mg
"C[C@]12CC[C@@H]3c4ccc(O)cc4CC[C@H]3[C@@H]1C[C@@H](O)[C@@H]2O [Estriol (E3), estriol]",Bioavailability after oral application,[2]; in words,tends to be minimised
CC/C(=C(/CC)c1ccc(O)cc1)c1ccc(O)cc1 [DES],"Hepatic estrogenicity, in words","liver; oral, compared with conjugated and natural estrogens",Even stronger hepatic estrogenicity
C[C@]12CC[C@@H]3c4ccc(O)cc4CC[C@H]3[C@@H]1CCC2=O [estrone],Bioavailability after oral application,"[2]; in vivo, po",tends to be minimised
"CCN(CC)S(=O)(=O)Oc1ccc2c(c1)CC[C@@H]1[C@@H]2CC[C@]2(C)[C@@H](O)[C@H](O)C[C@@H]12 [J 984, 16α,17β-dihydroxy-estra-1,3,5(10)-trien-3-yl N,N-diethylsulfamate]",Uterus weight,[1],246 mg
"CCN(CC)S(=O)(=O)Oc1ccc2c(c1)CC[C@@H]1[C@@H]2CC[C@]2(C)[C@@H](O)C[C@@H]3C[C@]312 [J 983, 17β-hydroxy-14α,15α-methylene-estra-1,3,5(10)-trien-3-yl N,N-diethylsulfamate]",Uterus weight,[1],349 mg
"C#C[C@]1(O)CC[C@H]2[C@@H]3CCc4cc(O)ccc4[C@H]3CC[C@@]21C [Ethinyl estradiol (EE), ethinyl estradiol]",Effect of dose reduction on increased angiotensin levels,angiotensin; six months,marginally reduced values
same,Effect of dose reduction on increased angiotensin levels,angiotensin; three months,did not result in reduction
same,"Hepatic estrogenicity, in words","liver; in vivo, po",Even stronger hepatic estrogenicity
same,Estrogenic effectiveness in the liver relative to orally administered natural estrogens,liver; in vivo,eight to ten times as high
same,highest AUC recorded,[3]; [5],2.121 ng·h/mL
same,lowest AUC,[3]; [5],0.284 ng·h/mL
same,Oral bioavailability compared with natural estrogens,"[3]; human, oral, in words",much better in bioavailability
same,Blood level,[4],0.0289 ng/mL (serum)
same,Uterus weight,[1],353 mg
"C[C@]12CC[C@@H]3c4ccc(O)cc4CC[C@H]3[C@@H]1CC[C@@H]2O [Estradiol (E2), estradiol]",Bioavailability after oral application,"[2]; in vivo, po",tends to be minimised
same,Blood level,[4],0.0192 ng/mL (serum)
same,Uterus weight,[1],182 mg
C[C@]12CC[C@@H]3c4ccc(OS(=O)(=O)O)cc4CC[C@H]3[C@@H]1CCC2=O [estrone sulphate],Bioavailability after oral application,[2]; in words,tends to be minimised
"CN(C)S(=O)(=O)Oc1ccc2c(c1)CC[C@@H]1[C@@H]2CC[C@]2(C)[C@@H](O)C[C@@H]3C[C@]312 [J 982, 17β-hydroxy-14α,15α-methylene-estra-1,3,5(10)-trien-3-yl N,N-dimethylsulfamate]",Uterus weight,[1],193 mg
